# Measurements: patent US11299503B2, “Compound, coating composition comprising the same, organic light emitting device using the same and method for manufacturing the same” (LG Chem, Ltd., priority 2018, dated 2022)
# Assay: Solubility in toluene, precipitate check by tyndall effect
# Assay type: physicochemical
# Details: toluene 100 ml, left 30 minutes at room temperature (25° C.), dissolved amount measured
# Description: In addition, Compound BD12, Compound BD24, Compound BD30, Compound BD38 and Compound C used in Example 1 to Example 4 and Comparative Example 1 were each introduced to a solvent (toluene 100 ml), and then left unattended for 30 minutes at room temperature (25° C.). After that, laser was passed through the solution to determine whether precipitates were formed through a […] effect, and the dissolved amount was measured.
row,Compound,Solubility [wt %]
1,CC(C)c1ccc([Si](c2ccc(C(C)C)cc2)(c2ccc(C(C)C)cc2)c2ccc(N(c3cccc(-c4cccc([Si](c5ccc(C(C)C)cc5)(c5ccc(C(C)C)cc5)c5ccc(C(C)C)cc5)c4)c3)c3cc4c5ccccc5c(N(c5ccc([Si](c6ccc(C(C)C)cc6)(c6ccc(C(C)C)cc6)c6ccc(C(C)C)cc6)cc5)c5cccc(-c6cccc([Si](c7ccc(C(C)C)cc7)(c7ccc(C(C)C)cc7)c7ccc(C(C)C)cc7)c6)c5)cc4c4ccccc34)cc2)cc1 [BD30],15
2,c1ccc([Si](c2ccccc2)(c2ccccc2)c2cccc(-c3ccccc3N(c3cccc([Si](c4ccccc4)(c4ccccc4)c4ccccc4)c3)c3cc4c5ccccc5c(N(c5cccc([Si](c6ccccc6)(c6ccccc6)c6ccccc6)c5)c5ccccc5-c5cccc([Si](c6ccccc6)(c6ccccc6)c6ccccc6)c5)cc4c4ccccc34)c2)cc1 [BD12],10
3,"c1ccc(-c2ccc(N(c3ccccc3)c3cc4c5ccccc5c(N(c5ccccc5)c5ccc(-c6ccccc6)cc5)cc4c4ccccc34)cc2)cc1 [Compound C, reference compound]",0.1
4,c1ccc([Si](c2ccccc2)(c2ccccc2)c2cccc(-c3ccccc3N(c3ccc(-c4cc5c6ccccc6c(-c6ccc(N(c7cccc([Si](c8ccccc8)(c8ccccc8)c8ccccc8)c7)c7ccccc7-c7cccc([Si](c8ccccc8)(c8ccccc8)c8ccccc8)c7)cc6)cc5c5ccccc45)cc3)c3cccc([Si](c4ccccc4)(c4ccccc4)c4ccccc4)c3)c2)cc1 [BD24],10
5,CC(C)c1ccc([Si](c2ccc(C(C)C)cc2)(c2ccc(C(C)C)cc2)c2ccc(N(c3ccc(-c4cc5c6ccccc6c(-c6ccc(N(c7ccc([Si](c8ccc(C(C)C)cc8)(c8ccc(C(C)C)cc8)c8ccc(C(C)C)cc8)cc7)c7cccc(-c8cccc([Si](c9ccc(C(C)C)cc9)(c9ccc(C(C)C)cc9)c9ccc(C(C)C)cc9)c8)c7)cc6)cc5c5ccccc45)cc3)c3cccc(-c4cccc([Si](c5ccc(C(C)C)cc5)(c5ccc(C(C)C)cc5)c5ccc(C(C)C)cc5)c4)c3)cc2)cc1 [BD38],15
